Test results reported in ChEMBL document CHEMBL1149262, “Monoamine transporter binding, locomotor activity, and drug discrimination properties of 3-(4-substituted-phenyl)tropane-2-carboxylic acid methyl ester isomers” (J Med Chem, 2004).
Activity calls are given as the source filed them. The calls are words filed in the database; no cut-off is given here.

Experiments:
Mus musculus [1] = assay: Locomotor activity in CD1 mouse assessed as stimulation at 1 mg/kg, ip after 1 hr relative to control; assay type: functional; conditions: route intraperitoneal
Mus musculus [2] = assay: Locomotor activity in CD1 mouse assessed as stimulation at 1 mg/kg, ip after 2 hrs relative to control; assay type: functional; conditions: route intraperitoneal
Mus musculus [3] = assay: Locomotor activity in CD1 mouse assessed as stimulation at 1 mg/kg, ip after 3 hrs relative to control; assay type: functional; conditions: route intraperitoneal
Mus musculus [4] = assay: Locomotor activity in CD1 mouse assessed as stimulation at 1 mg/kg, ip after 4 hrs relative to control; assay type: functional; conditions: route intraperitoneal
Rattus norvegicus [5] = assay: Drug discrimination effect in CD Albino rat assessed as percent of rat choosing cocaine lever at 1 mg/kg, ip; assay type: functional; conditions: route intraperitoneal
Rattus norvegicus [6] = assay: Drug discrimination effect in CD Albino rat assessed as percent of rat choosing cocaine lever at 3 mg/kg, ip; assay type: functional; conditions: route intraperitoneal
Rattus norvegicus [7] = assay: Drug discrimination effect in CD Albino rat assessed as percent of rat choosing cocaine lever at 5.6 mg/kg, ip; assay type: functional; conditions: route intraperitoneal
Rattus norvegicus [8] = assay: Drug discrimination effect in CD Albino rat assessed as percent of rat choosing cocaine lever at 10 mg/kg, ip; assay type: functional; conditions: route intraperitoneal
Mus musculus [9] = assay: Activity in CD1 mouse assessed as death at 100 mg/kg, ip after 4 hrs; assay type: functional, organism-based; design: dose 100 mg/kg
Mus musculus [10] = assay: Activity in CD1 mouse assessed as convulsions at 100 mg/kg, ip after 4 hrs; assay type: functional, organism-based; design: dose 100 mg/kg
Mus musculus [11] = assay: Activity in CD1 mouse assessed as hypoactivity at 100 mg/kg, ip after 4 hrs; assay type: functional, organism-based; design: dose 100 mg/kg
Mus musculus [12] = assay: Locomotor activity in CD1 mouse assessed as stimulation at 3 mg/kg, ip after 1 hr relative to control; assay type: functional; conditions: route intraperitoneal
Mus musculus [13] = assay: Locomotor activity in CD1 mouse assessed as stimulation at 3 mg/kg, ip after 2 hrs relative to control; assay type: functional; conditions: route intraperitoneal
Mus musculus [14] = assay: Locomotor activity in CD1 mouse assessed as stimulation at 3 mg/kg, ip after 3 hrs relative to control; assay type: functional; conditions: route intraperitoneal
Mus musculus [15] = assay: Locomotor activity in CD1 mouse assessed as stimulation at 3 mg/kg, ip after 4 hrs relative to control; assay type: functional; conditions: route intraperitoneal
Mus musculus [16] = assay: Locomotor activity in CD1 mouse assessed as stimulation at 10 mg/kg, ip after 1 hr relative to control; assay type: functional; conditions: route intraperitoneal
Mus musculus [17] = assay: Locomotor activity in CD1 mouse assessed as stimulation at 10 mg/kg, ip after 2 hrs relative to control; assay type: functional; conditions: route intraperitoneal
Mus musculus [18] = assay: Locomotor activity in CD1 mouse assessed as stimulation at 10 mg/kg, ip after 3 hrs relative to control; assay type: functional; conditions: route intraperitoneal
Mus musculus [19] = assay: Locomotor activity in CD1 mouse assessed as stimulation at 10 mg/kg, ip after 4 hrs relative to control; assay type: functional; conditions: route intraperitoneal
Mus musculus [20] = assay: Locomotor activity in CD1 mouse assessed as stimulation at 30 mg/kg, ip after 1 hr relative to control; assay type: functional; conditions: route intraperitoneal
Mus musculus [21] = assay: Locomotor activity in CD1 mouse assessed as stimulation at 30 mg/kg, ip after 2 hrs relative to control; assay type: functional; conditions: route intraperitoneal
Mus musculus [22] = assay: Locomotor activity in CD1 mouse assessed as stimulation at 30 mg/kg, ip after 3 hrs relative to control; assay type: functional; conditions: route intraperitoneal
Mus musculus [23] = assay: Locomotor activity in CD1 mouse assessed as stimulation at 30 mg/kg, ip after 4 hrs relative to control; assay type: functional; conditions: route intraperitoneal
Mus musculus [24] = assay: Activity in CD1 mouse assessed as flattened body posture at 100 mg/kg, ip after 4 hrs; assay type: functional, organism-based; design: dose 100 mg/kg
Rattus norvegicus [25] = assay: Cocaine discrimination in ip dosed CD Albino rat; assay type: functional
Mus musculus [26] = assay: Activity in CD1 mouse assessed as stereotypy at 10 mg/kg, ip after 4 hrs; assay type: functional, organism-based; design: dose 10 mg/kg
Mus musculus [27] = assay: Activity in CD1 mouse assessed as ptosis at 10 mg/kg, ip after 4 hrs; assay type: functional, organism-based; design: dose 10 mg/kg
Mus musculus [28] = assay: Activity in CD1 mouse assessed as hypoactivity at 10 mg/kg, ip after 4 hrs; assay type: functional, organism-based; design: dose 10 mg/kg
Mus musculus [29] = assay: Activity in CD1 mouse assessed as stereotypy at 100 mg/kg, ip after 4 hrs; assay type: functional, organism-based; design: dose 100 mg/kg
Mus musculus [30] = assay: Activity in CD1 mouse assessed as circling at 100 mg/kg, ip after 4 hrs; assay type: functional, organism-based; design: dose 100 mg/kg
Mus musculus [31] = assay: Activity in CD1 mouse assessed as straub tail at 100 mg/kg, ip after 4 hrs; assay type: functional, organism-based; design: dose 100 mg/kg
Mus musculus [32] = assay: Activity in CD1 mouse assessed as ptosis at 100 mg/kg, ip after 4 hrs; assay type: functional, organism-based; design: dose 100 mg/kg
[33] = biological target: Sodium-dependent dopamine transporter (Homo sapiens, UniProt Q01959); assay: Displacement of [3H]WIN-35428 from DAT
Mus musculus [34] = assay: Locomotor activity in ip dosed CD1 mouse in peak hour; assay type: functional
[35] = biological target: Sodium-dependent serotonin transporter (Homo sapiens, UniProt P31645)
Description: Displacement of [3H]paroxetine from 5HTT

Mus musculus [36] = assay: Activity in CD1 mouse assessed as stimulation at 10 mg/kg, ip after 4 hrs; assay type: functional, organism-based; design: dose 10 mg/kg
Mus musculus [37] = assay: Activity in CD1 mouse assessed as tremor at 100 mg/kg, ip after 4 hrs; assay type: functional, organism-based; design: dose 100 mg/kg
Mus musculus [38] = assay: Activity in CD1 mouse assessed as ataxia at 100 mg/kg, ip after 4 hrs; assay type: functional, organism-based; design: dose 100 mg/kg

Chain of Sodium-dependent dopamine transporter (Q01959 whole entry): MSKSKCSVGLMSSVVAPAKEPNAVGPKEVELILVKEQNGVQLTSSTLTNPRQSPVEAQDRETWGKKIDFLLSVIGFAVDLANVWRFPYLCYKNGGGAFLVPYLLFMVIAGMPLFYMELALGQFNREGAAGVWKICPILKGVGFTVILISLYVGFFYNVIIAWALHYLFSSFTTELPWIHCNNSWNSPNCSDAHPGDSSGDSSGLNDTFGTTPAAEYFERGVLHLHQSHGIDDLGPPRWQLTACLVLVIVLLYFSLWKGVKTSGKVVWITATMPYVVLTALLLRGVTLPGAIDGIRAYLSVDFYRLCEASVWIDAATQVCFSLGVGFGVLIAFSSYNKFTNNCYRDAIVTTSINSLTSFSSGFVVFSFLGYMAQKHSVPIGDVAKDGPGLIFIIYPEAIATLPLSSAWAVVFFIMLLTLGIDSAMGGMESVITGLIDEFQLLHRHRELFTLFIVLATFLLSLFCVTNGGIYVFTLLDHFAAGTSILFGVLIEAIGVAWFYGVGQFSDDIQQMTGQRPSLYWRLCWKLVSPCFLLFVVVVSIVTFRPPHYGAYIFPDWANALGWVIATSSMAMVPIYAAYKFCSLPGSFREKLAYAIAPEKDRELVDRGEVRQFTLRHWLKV
Chain of Sodium-dependent serotonin transporter (P31645 whole entry): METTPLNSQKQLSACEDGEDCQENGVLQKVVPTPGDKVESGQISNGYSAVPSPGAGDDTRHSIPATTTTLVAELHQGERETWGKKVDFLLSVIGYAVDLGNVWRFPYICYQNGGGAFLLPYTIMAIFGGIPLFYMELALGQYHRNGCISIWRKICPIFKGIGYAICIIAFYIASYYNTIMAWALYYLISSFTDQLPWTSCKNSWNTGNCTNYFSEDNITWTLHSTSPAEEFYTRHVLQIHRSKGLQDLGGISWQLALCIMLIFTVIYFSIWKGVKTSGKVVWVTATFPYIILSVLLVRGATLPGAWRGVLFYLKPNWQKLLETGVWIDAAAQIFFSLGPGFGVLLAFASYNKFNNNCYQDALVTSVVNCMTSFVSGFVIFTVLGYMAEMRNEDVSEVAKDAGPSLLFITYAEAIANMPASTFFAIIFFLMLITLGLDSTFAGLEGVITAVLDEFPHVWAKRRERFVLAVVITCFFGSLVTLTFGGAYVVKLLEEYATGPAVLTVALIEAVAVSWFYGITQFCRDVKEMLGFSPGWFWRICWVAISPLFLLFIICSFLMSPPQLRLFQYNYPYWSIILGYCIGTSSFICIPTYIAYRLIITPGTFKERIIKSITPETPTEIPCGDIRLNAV

Structure (SMILES) | Activity (Mus musculus [1]) [%] | Activity (Mus musculus [2]) [%] | Activity (Mus musculus [3]) [%] | Activity (Mus musculus [4]) [%] | Activity (Rattus norvegicus [6]) [%] | Activity (Rattus norvegicus [7]) [%] | Activity (Rattus norvegicus [8]) [%] | Activity (Mus musculus [9]) | Activity (Mus musculus [10]) | Activity (Mus musculus [12]) [%] | Activity (Mus musculus [13]) [%] | Activity (Mus musculus [14]) [%] | Activity (Mus musculus [15]) [%] | Activity (Mus musculus [16]) [%] | Activity (Mus musculus [17]) [%] | Activity (Mus musculus [18]) [%] | Activity (Mus musculus [19]) [%] | Activity (Mus musculus [20]) [%] | Activity (Mus musculus [21]) [%] | Activity (Mus musculus [22]) [%] | other results
COC(=O)[C@H]1[C@H]2CCC(C[C@H]1c1ccc(Cl)cc1)N2C | 6 | 182 | 154 | 45 | 0 | 13 | 13 | Active | Active | 16 | 128 | 107 | 69 | 51 | 169 | 114 | 41 | -46 | -27 | 125 | Activity (Rattus norvegicus [5]): 13%; Activity (Mus musculus [11]): Active; Activity (Mus musculus [23]): -27%; Activity (Mus musculus [24]): Active
COC(=O)[C@H]1C2CCC(C[C@@H]1c1ccc(Br)cc1)N2C (stereo partly drawn) | 9 | 26 | 56 | -5 | 25 | 17 | 86 | Active | Active | 19 | 123 | 100 | 29 | 49 | 268 | 267 | 74 | -33 | 640 | 901 | ED50 (Rattus norvegicus [25]): 7.29 mg/kg; Activity (Mus musculus [26]): Active; Activity (Mus musculus [27]): Active; Activity (Mus musculus [28]): Active; Activity (Mus musculus [29]): Active; Activity (Mus musculus [30]): Active; Activity (Mus musculus [31]): Active; Activity (Mus musculus [11]): Active; Activity (Mus musculus [32]): Active; IC50 [33]: 0.0157 µM; ED50 (Mus musculus [34]): 10 mg/kg; Activity (Mus musculus [23]): 373%; IC50 [35]: 0.57 µM; Ki [35]: 0.14 µM
COC(=O)[C@H]1C2CCC(C[C@@H]1c1ccc(Cl)cc1)N2C (stereo partly drawn) | 15 | 50 | 83 | 62 | 13 | 88 | 67 | Active | Active | 68 | 188 | 92 | 15 | 248 | 1003 | 1275 | 667 | 154 | 493 | 911 | ED50 (Rattus norvegicus [25]): 4.07 mg/kg; Activity (Mus musculus [36]): Active; Activity (Mus musculus [29]): Active; Activity (Mus musculus [30]): Active; Activity (Mus musculus [31]): Active; Activity (Mus musculus [37]): Active; Activity (Mus musculus [38]): Active; IC50 [33]: 0.025 µM; ED50 (Mus musculus [34]): 4.3 mg/kg; Activity (Mus musculus [23]): 794%
